This is an account of results in publication PMC7822874, “Chemoprotective antimalarials identified through quantitative high-throughput screening of Plasmodium blood and liver stage parasites” (Scientific Reports, 2021).

A word on the AC50: it is the midpoint of the concentration-response curve, whichever way the signal moves.

In this assay the test system is Plasmodium falciparum Dd2 asexual blood stage parasites. Kind of assay: microbe, parasite or virus in culture. More on the design: species or system Plasmodium falciparum Dd2 in human erythrocytes; single determination (one 11-point concentration-response curve). Particulars: Plasmodium falciparum, DD2, Erythrocyte, 72 h; read-out: AC50.
Regarding `COc1cccc(Nc2ccc3c(n2)C(C)(C(=O)N2CCCC2)CN(C)C3)c1` (stereo not shown) [NCGC00414569-01], the AC50 worked out at 17.2 µM.
As for `CC(=O)Nc1cc(-c2cc(C(=O)NCCc3c[nH]cn3)c3c(c2)N(C)CCO3)ccn1` [NCGC00417032-01], the AC50 came to 13.7 µM.
Then `Cc1ccccc1-n1c(=C(C#N)C(=O)Nc2ccccc2)sc(=Cc2ccco2)c1=O` [MLS000081502-01], with 5.31 µM; and `CCC(C)c1ccc(N(C(=O)c2ccco2)C(C(=O)NC2CCCC2)c2cccnc2)cc1` (stereo not shown) [MLS001222477-01], with 6.68 µM.
As for `COc1ccc(-c2ccc3ncc(Nc4ccnc(N5CCOCC5)c4)n3n2)cn1` [NCGC00412623-01], the AC50 came out at 4.85 µM.
For `O[C@@H]1C[C@@](CNCc2cccc(Cl)c2)(COc2ccccc2)C[C@@H]1O` [NCGC00392187-01], the AC50 was found to be 3.85 µM.
Turning to `CC(C)N1CC=C(c2c[nH]c3ccccc23)CC1` [MLS000093714-01], the AC50 is 10.6 µM.
Then `COc1ccccc1CNC[C@H]1O[C@H](Cc2cc(CN(C)Cc3ccccc3)on2)CC[C@@H]1O` [NCGC00393289-01], with 2.99 µM.
Consider `Nc1nonc1-n1nnc(C(=O)N/N=C/c2ccc(Cl)cc2)c1-c1ccc2c(c1)OCO2` [MLS001142698-01], for which the AC50 stood at 0.376 µM.
Then `Cc1cc(Nc2nc3ccccc3nc2Cl)n(-c2ccccc2C)n1` [MLS000595322-01], with 0.841 µM; and `CC1CCCN(Cc2c(O)ccc3c(=O)c(-c4ccc(Cl)cc4)c(C(F)(F)F)oc23)C1` (stereo not shown) [NCGC00100583-01], with 0.841 µM; and `COc1cncc(Nc2cnc3ccc(-c4ccc(OC)c(OC)c4)nn23)c1` [NCGC00412563-01], with 1.22 µM.
Then `COc1cccc(-c2cc(C(=O)Nc3ccncc3)c3ccccc3n2)c1` [MLS001125696-01], with 6.68 µM; and `O=S(=O)(c1ccc(F)cc1)N1CCN(/C(S)=N/CCc2ccccc2)CC1` [MLS001035761-01], with 5.96 µM.
Turning to `O=C1c2cc(N3CCOCC3)nc(-c3ccccc3)c2CN1Cc1ccccc1` [NCGC00419273-01], the AC50 came to 21.7 µM.
Then `CCN1CCN(C(=O)c2ccc(-c3nnc4ccc(NC(=O)C5CC5)cn34)cc2)CC1` [NCGC00429842-01], with 6.68 µM; and `O=C(CNC1CC1)Nc1cc(C(F)(F)F)ccc1Cl` [MLS001010951-01], with 15 µM; and `Cc1cc(C(=O)Nc2cnn(Cc3ccc(Cl)cc3Cl)c2)no1` [MLS000087313-01], with 9.44 µM.
Under `c1cc(-c2noc([C@@H]3Cc4[nH]cnc4CN3CC3CCCCC3)n2)ccn1` [NCGC00394653-01] stands 21.7 µM; under `O=C1CO[C@H]2CCN(Cc3ccc4c(c3)CCO4)CC[C@@H]2N1Cc1ccccc1` [NCGC00409937-01], 17.2 µM.
Then `O=C(c1nnc(CNc2ccncc2)n1-c1ccccc1)N1CCC[C@@H]1C(c1ccccc1)c1ccccc1` [NCGC00415781-01], with 10.6 µM.
`Cc1ccccc1CN1C[C@@H]2C[C@@H](c3c[nH]nc3-c3ccccc3)N3CCC[C@@]23C1=O` [MLS000735381-01]: the AC50 turned out to be 15 µM.
Under `Cc1ccc2nc(Cl)c3cc(C(=O)NCCCN4CCC(C)CC4)sc3c2c1` [NCGC00110841-01] stands 6.68 µM; under `Cc1noc(C)c1-c1cc2c(cc(C)n2CCN(C)C)c(Nc2ccn(C)n2)n1` [NCGC00417199-01], 13.7 µM.
Turning to `Cc1ccc(-c2cc(C(F)F)n3ncc(C(=O)N4CCCCC4c4cccnc4)c3n2)cc1` (stereo not shown) [MLS000665275-01], the AC50 was determined as 2.37 µM.
Under `COc1ccc(-n2cc(CNCCCn3ccnc3)c(-c3ccccc3Cl)n2)cc1` [MLS000734282-01] stands 3.35 µM; under `CC(C)C(=O)Nc1oc(-c2ccccc2)cc1C#N` [MLS000721149-01], 6.68 µM; under `O=C(NCC1CCCN(Cc2cccc(-c3ccco3)c2)C1)c1cccs1` (stereo not shown) [NCGC00427501-01], 6.68 µM.
`O=c1c([N+](=O)[O-])cccn1Cc1ccc(F)cc1Cl` [MLS000728802-01]: the AC50 turned out to be 4.73 µM.
Then `CCN1CCN(Cc2ccc(NC(=O)c3cc(NC(=O)C4=NN(c5ccccc5)C(=O)C4)cc(OC)c3)cc2C(F)(F)F)CC1` [MLS000911574-01], with 8.41 µM; and `COc1ccc(S(=O)(=O)N2CCCCCC2)cc1NC(=O)c1c2c(nc3ccccc13)CCN(Cc1ccccc1)C2` [MLS000393062-01], with 4.73 µM.
Consider `CCn1cc(C(=O)NCCCN2CCCC(C)C2)c(=O)c2cc([S+](=O)([O-])N(C)C3CCCCC3)ccc21` (stereo not shown) [NCGC00109162-01], for which the AC50 came to 8.41 µM.
Under `Cc1oc2ccc(O)c(CN3CCN(Cc4ccccc4)CC3)c2c1C(=O)Nc1cccc(Cl)c1C` [NCGC00115656-01] stands 0.596 µM.
Then `O=C(c1cccs1)N1CCCCCC1CN1CCCC1` (stereo not shown) [NCGC00456696-01], with 10.6 µM; and `COc1cc(Br)c(C(C)NC(=O)c2cccc(Br)c2)cc1OC` (stereo not shown) [MLS000325399-01], with 2.11 µM.
Then `Clc1ccc(C(Cn2ccnc2)OCc2csc3c(Cl)cccc23)c(Cl)c1` (stereo not shown) [MLS002154122-01], with 2.37 µM; and `OC1=C2C(=Nc3ccccc3SC2c2c(F)cccc2Cl)c2ccccc21` (stereo not shown) [NCGC00108823-01], with 9.44 µM; and `CCCCn1c(N)c(N(CC(C)C)C(=O)c2cc(-c3ccc(OC)c(OC)c3)nc3ccccc23)c(=O)[nH]c1=O` [MLS001157051-01], with 11.9 µM.
With `COc1ccc(CNC(=O)C2CCN(c3nc(-c4ccccc4)nc4c3CCC4)CC2)cc1` [MLS001120192-01], the AC50 is 7.5 µM.
Then `COc1cc(/C=C(\C#N)c2nc3ccccc3[nH]2)cc(Cl)c1OCc1ccccc1Cl` [NCGC00102602-01], with 5.31 µM; and `Cc1cc2c(c3oc(=O)c4ccccc4c13)CN(Cc1ccc(F)cc1)CO2` [NCGC00116338-01], with 2.66 µM.
Under `COc1ccccc1N1CCN(Cc2cc(C)c(C)cc2O)CC1` [MLS000571139-01] stands 0.376 µM; under `Clc1ccc(CN2CCOC[C@H](Oc3ccccc3)C2)cc1` [NCGC00393521-01], 17.2 µM; under `Cc1cc(Nc2cc(Cl)cc(Cl)c2)nc(N)n1` [MLS000861564-01], 6.68 µM.
Then `CCCCCCC(O)(c1ccc(OC)cc1)C(CN1CCOCC1)c1ccccc1` (stereo not shown) [MLS001198921-01], with 4.22 µM; and `COc1ccc([S+](=O)([O-])NC[C@H]2C[C@@H]3CC[N@]2C[C@@H]3CN(C)Cc2ccccc2)cc1` [NCGC00400093-01], with 4.73 µM.
Consider `O=C1Nc2ccccc2C12Nc1ccccc1-c1nc3ccccc3n12` (stereo not shown) [MLS000051512-01], for which the AC50 came out at 6.68 µM.
Under `Cc1ccc2nc(-c3ccccc3O)c(Nc3ccccc3C)n2c1` [NCGC00106804-01] stands 2.37 µM; under `Cc1noc(C)c1-c1cc2cc(CN(C)C)oc2c(NCCc2ccccc2)n1` [NCGC00417471-01], 13.7 µM.
Then `COc1ccccc1N1CCN(C(=O)C2CCCN(S(=O)(=O)c3ccc4c(c3)oc(=O)n4C)C2)CC1` (stereo not shown) [NCGC00140732-01], with 5.96 µM; and `CCN(CC)CC(O)COc1ccccc1C(=O)CCc1ccccc1` (stereo not shown) [MLS000107538-01], with 1.5 µM.
Then `C=CCCC(CN1CCCC1)Oc1ccc(C(=O)N2CCCC2)cn1` (stereo not shown) [NCGC00435125-01], with 13.3 µM; and `COc1ccc(-c2cn3c(n2)sc2cc(C(=O)NCCCN4CCCCC4)ccc23)cc1` [NCGC00121823-01], with 4.73 µM.
Regarding `CC1(c2ccccc2)N(Cc2ccccc2)C(=O)OC12CCN(Cc1cccnc1)CC2` (stereo not shown) [NCGC00415410-01], the half-maximal activity concentration (AC50) turned out to be 15.3 µM.
As to `CCCCC(O)(c1ccc(F)cc1)C(CN1CCOCC1)c1ccc(Cl)cc1` (stereo not shown) [MLS001200342-01], the AC50 stood at 5.96 µM.
For `COc1ccc2c(c1OC)C(=O)N1N=C(c3ccc(O)cc3)CC21` (stereo not shown) [MLS000570475-01], the AC50 is 16.8 µM.
Then `Cc1nn(CCC(=O)N[C@H]2CC[C@H]2NC2CCCCC2)c(C)c1C` [NCGC00442733-01], with 6.68 µM; and `O=C(NC1=C(Nc2ccc(F)cc2)C(=O)c2ccccc2C1=O)c1ccc(Cl)cc1` [MLS000375026-01], with 0.841 µM.
Consider `CCc1cccc(NC(c2nnc(-c3ccccc3)o2)c2ccc(F)cc2Cl)c1` (stereo not shown) [NCGC00129460-01], for which the AC50 was 6.68 µM.
Under `COc1ccccc1NC(=O)N1CC(=O)Nc2sc3c(c2C1c1ccccc1)CCCC3` (stereo not shown) [NCGC00120109-01] stands 15 µM.
Under `COCC1CN(C)CC12CCN([S+](=O)([O-])c1ccc(F)c(Cl)c1)CC2` (stereo not shown) [NCGC00461939-01] stands 13.3 µM.
On to `Cc1ccc(C2Cn3nnc(-c4noc(-c5n[nH]c6c5CCCC6)n4)c3CO2)cc1` (stereo not shown) [NCGC00454353-01], for which the AC50 was found to be 13.3 µM.
Then `COc1ccc(-c2cnc3[nH]cc(CC(=O)NCc4cccnc4)c3c2)cn1` [NCGC00412433-01], with 6.85 µM.
Then `CC(=O)c1ccc(N2CCN(c3nc4c([S+](=O)([O-])c5ccccc5)nnn4c4ccc(Cl)cc34)CC2)cc1` [NCGC00112340-01], with 3.35 µM; and `COc1ccc(NC(=O)c2c(C)oc3ccc(O)c(CN4CCCC(C)C4)c23)cc1Cl` (stereo not shown) [NCGC00115530-01], with 0.944 µM.
Under `Cc1oc2ccc(O)c(CN3CCCCCC3)c2c1C(=O)Nc1cccc(Cl)c1C` [NCGC00115685-01] stands 0.841 µM; under `COCCCNC(=O)C1(C)CN(C)Cc2ccc(Nc3ccccc3)nc21` (stereo not shown) [NCGC00414477-01], 6.85 µM.
As for `Nc1ccc2oc(-c3ccc4[nH]cnc4c3)nc2c1` [MLS000121646-01], the AC50 worked out at 13.3 µM.
Then `Cc1ccc(C(=O)N2CCC(c3c[nH]c4ccccc34)(c3c[nH]c4ccccc34)CC2)cc1` [NCGC00113768-01], with 8.41 µM; and `Oc1ccccc1-c1cc(C2=CCOCC2)c2cncn2c1` [NCGC00412161-01], with 9.68 µM; and `Cc1ccc(-n2ncc(C(=O)N3CCN(c4cc(Cl)ccc4C)CC3)c2C2CCN(C(=O)OC(C)(C)C)CC2)cc1` [NCGC00126953-01], with 8.41 µM.
Under `COc1cccc(NC(=O)CN(C)C(=O)c2oc3c(ccc4ccccc43)c2C)c1` [MLS001142056-01] stands 0.75 µM; under `COc1ccc(NC(=O)c2ccc(-c3nnc4ccc(NC(=O)C5CCC5)cn34)cc2)cc1` [NCGC00429884-01], 4.22 µM.
